Measured values reported in patent US7098332B2, “5,8-Dihydro-6H-pyrido[2,3-d]pyrimidin-7-ones” (Hoffmann-La Roche Inc., priority 2002, dated 2006).

Columns and labels:
KDR = target: T1, KDR (Homo sapiens, UniProt P35968); assay: KDR kinase HTRF assay; format: biochemical; conditions: 0.3 mM ATP
T1 construct: EEE tag
Method: (§1) To determine inhibition of KDR, FGFR, EGFR, and PDGFR activity, kinase assays were conducted using an HTRF (Homogeneous Time Resolved Fluorescence) assay. This assay is described in A. J. Kolb et. al., Drug Discovery Today, 1998, 3(7), p 333.
Prior to kinase reaction, recombinant EEE-tagged KDR was activated in the presence of activation buffer (50 mM HEPES, pH 7.4, 1 mM DTT, 10% glycerol, 150 mM NaCl, 0.1 mM EDTA, 26 mM MgCl2, and 4 mM ATP). The enzyme was incubated at 4° C. for 1 hour.
(§2) Kinase activity assays were performed in 96-well polypropylene plates (Falcon) with a total volume of 90 μL in each well. Each well contained 1 μM KDR substrate (Biotin-EEEEYFELVAKKKK), 1 nM activated KDR, and a test compound with one of 8 assay concentrations ranging from 100 μM to […] (1:5 serial dilution). The kinase activity assay was done in the presence of 100 mM HEPES, pH 7.4, 1 mM DTT, 0.1 mM Na2VO4, 25 mM MgCl2, 50 mM NaCl (from KDR stock solution), 1% DMSO (from compound), 0.3 mM ATP (at Km concentration) and 0.02% BSA. The reaction was incubated at 37° C. for 30 minutes. To stop the KDR reaction, 72 μL of reaction mixture was transferred into a STOP plate containing 18 μL of revelation buffer (20 mM EDTA, 50 mM HEPES, pH 7.4, 0.02% BSA, 10 nM Eu-labelled anti-pY antibody (final conc. 2 nM), and 100 nM streptavidin (final conc. 20 nM)). After mixing, 35 μL of solution was transferred into duplicate wells of a 384-well black plate (Costar), and read at 615/665 nm on a Wallac Victor 5 reader.
(§3) Compound IC50 values were determined from duplicate sets of data, and calculated by using Excel and fitting data to equation Y=[(a−b)/{1+(X/c)^d]+b, where a and b are enzyme activity in the presence of no test inhibitor compound and an infinite amount of inhibitor test compound, respectively, c is the IC50 and d is the hill constant of the compound response. The IC50 value is the concentration of test compound that reduces by 50% the enzyme activity under the test conditions described.

FGFR = target: T2, FGFR; assay: FGFR kinase HTRF assay; format: biochemical; conditions: 10 μM ATP
T2 construct: fused on or other part: GST tag
Method: as §1, §2
FGFR, EGFR, and PDGFR activity assays were carried out as described above for the KDR activity assay with the following differences. GST-tagged FGFR enzyme was activated at room temperature for 1 hour in the following activation buffer: 100 mM HEPES, pH 7.4, 50 mM NaCl, 20 mM MgCl2, and 4 mM ATP. The kinase activity assay was performed with 1 μM substrate (Biotin-EEEEYFELV), 1.5 nM activated FGFR, and test compound in the presence of 100 mM HEPES, 1 mM DTT, 0.4 mM MgCl2, 0.4 mM MnCl2, 50 mM NaCl, 1% DMSO, 10 μM ATP (Km=8.5 μM for FGFR), 0.1 mM Na2VO4, and 0.02% BSA, in a total volume of 90 μL. The rest of the assay was performed in the same manner as KDR assay.
as §3

EGFR = EGFR (Homo sapiens, UniProt P00533); assay: EGFR kinase HTRF assay; format: biochemical; conditions: 0.5 μM ATP
Method: as §1, §2
(§4) The EGFR kinase activity assay was performed with 1 μM substrate (Biotin-EEEEYFELV), 1.5 nM EGFR, test compounds, 100 mM HEPES, pH 7.4, 1 mM DTT, 5 mM MgCl2, 2 mM MnCl2, 1% DMSO, 0.5 μM ATP (Km for EGFR), 0.1 mM Na2VO4, and 0.02% BSA. The rest of the assay was performed in the same manner as the KDR assay.
as §3

PDGFR = PDGFR kinase HTRF assay; format: biochemical; conditions: 2.3 μM ATP
Method: as §1, §2
as §4, with “PDGFR” for “EGFR”, “1.0” for “1.5”, “PDGFR,” for “EGFR,”, “2.3” for “0.5”, “PDGFR),” for “EGFR),”
as §3

[1] = test system: Human umbilical vein endothelial cells; assay: VEGF-stimulated HUVEC proliferation assay (BrdU); format: cell-based; conditions: VEGF 20 ng per mL, BrdU labeling, read-out: HUVEC/VEFG IC50
Method: (§5) The antiproliferative activity of test-compounds of this invention in cell-based assays was evaluated by BrdU assay using the BrdU kit (Roche Biochemicals 1-647-229). Human umbilical vein endothelial cells (Clonetics CC-2519) were cultured in EGM-2 (Clonetics CC-3162) medium and seeded at 10000 cells per well in a volume of 200 μL of EGM-2 (Clonetics CC-3162) media in a 96-well flat bottom plates (Costar 3595) overnight. After 24 hours of growth at 37° C. with 5% CO2, the incubation media was removed slowly by aspiration and the content of each well was washed with 300 μL pre-warmed EBM-2 (Clonetics CC-3156) containing 50 μg per mL of gentamycin and 50 ng per mL of amphotercin-B (Clonetics CC-4083). […]
(§6) After 24 hour exposure to the test compounds, the cells were labeled with BrdU (Roche Biochemicals 1-647-229), by adding 20 μL per well of BrdU labeling reagent that has been diluted (1:100) in serum starvation medium. […] The plates were read at 450 nm with reference wavelength of 650 nm. The percent inhibition for each test compound was calculated by subtracting the absorbency of the blank (no cells) wells from all wells, then subtracting the division of the average absorbency of each test duplicate by the average of the controls from 1. […] The IC50 is determined from the linear regression of a plot of the logarithm of the concentration versus percent inhibition.

[2] = test system: Human umbilical vein endothelial cells; assay: FGF-stimulated HUVEC proliferation assay (BrdU); format: cell-based; conditions: FGF 5 ng per mL, BrdU labeling, read-out: HUVEC/bFGFR IC50
Method: as §5, §6

T1 sequence (P35968 20-1356): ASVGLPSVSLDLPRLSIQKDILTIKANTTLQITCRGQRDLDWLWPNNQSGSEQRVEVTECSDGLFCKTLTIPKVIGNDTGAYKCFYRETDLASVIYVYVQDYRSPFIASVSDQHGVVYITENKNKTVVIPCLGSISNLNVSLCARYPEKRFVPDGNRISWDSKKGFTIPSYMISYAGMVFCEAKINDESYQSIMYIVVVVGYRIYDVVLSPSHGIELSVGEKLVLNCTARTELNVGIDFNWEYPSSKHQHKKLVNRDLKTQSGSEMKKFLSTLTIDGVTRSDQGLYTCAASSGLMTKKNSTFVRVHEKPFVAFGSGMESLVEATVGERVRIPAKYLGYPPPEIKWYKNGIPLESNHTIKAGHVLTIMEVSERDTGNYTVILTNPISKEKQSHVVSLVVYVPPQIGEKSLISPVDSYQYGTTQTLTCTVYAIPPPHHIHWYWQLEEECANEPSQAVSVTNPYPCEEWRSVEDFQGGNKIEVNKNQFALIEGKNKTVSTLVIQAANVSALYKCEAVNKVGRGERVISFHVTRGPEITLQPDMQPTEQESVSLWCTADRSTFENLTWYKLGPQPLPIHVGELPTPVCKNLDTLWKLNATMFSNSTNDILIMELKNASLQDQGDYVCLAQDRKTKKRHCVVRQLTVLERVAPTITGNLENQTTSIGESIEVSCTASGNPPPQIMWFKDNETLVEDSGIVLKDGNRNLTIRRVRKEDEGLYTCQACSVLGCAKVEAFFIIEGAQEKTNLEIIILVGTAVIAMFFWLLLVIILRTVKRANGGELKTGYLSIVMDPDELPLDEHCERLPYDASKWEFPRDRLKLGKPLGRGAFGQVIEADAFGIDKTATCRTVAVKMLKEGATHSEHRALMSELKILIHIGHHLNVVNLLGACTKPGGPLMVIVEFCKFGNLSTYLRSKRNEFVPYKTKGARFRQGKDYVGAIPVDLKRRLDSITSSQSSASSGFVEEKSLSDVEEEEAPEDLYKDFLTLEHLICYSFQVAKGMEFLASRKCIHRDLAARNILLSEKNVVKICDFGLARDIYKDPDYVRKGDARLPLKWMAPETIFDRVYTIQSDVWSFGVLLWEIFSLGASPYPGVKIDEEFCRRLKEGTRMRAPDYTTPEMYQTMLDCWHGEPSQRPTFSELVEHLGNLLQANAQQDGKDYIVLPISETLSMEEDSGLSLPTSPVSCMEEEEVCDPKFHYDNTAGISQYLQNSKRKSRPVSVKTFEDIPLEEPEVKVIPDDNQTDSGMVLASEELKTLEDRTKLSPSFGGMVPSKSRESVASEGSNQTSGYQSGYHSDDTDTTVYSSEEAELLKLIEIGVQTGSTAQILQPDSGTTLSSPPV
Chain of EGFR (P00533 25-1210, species assumed): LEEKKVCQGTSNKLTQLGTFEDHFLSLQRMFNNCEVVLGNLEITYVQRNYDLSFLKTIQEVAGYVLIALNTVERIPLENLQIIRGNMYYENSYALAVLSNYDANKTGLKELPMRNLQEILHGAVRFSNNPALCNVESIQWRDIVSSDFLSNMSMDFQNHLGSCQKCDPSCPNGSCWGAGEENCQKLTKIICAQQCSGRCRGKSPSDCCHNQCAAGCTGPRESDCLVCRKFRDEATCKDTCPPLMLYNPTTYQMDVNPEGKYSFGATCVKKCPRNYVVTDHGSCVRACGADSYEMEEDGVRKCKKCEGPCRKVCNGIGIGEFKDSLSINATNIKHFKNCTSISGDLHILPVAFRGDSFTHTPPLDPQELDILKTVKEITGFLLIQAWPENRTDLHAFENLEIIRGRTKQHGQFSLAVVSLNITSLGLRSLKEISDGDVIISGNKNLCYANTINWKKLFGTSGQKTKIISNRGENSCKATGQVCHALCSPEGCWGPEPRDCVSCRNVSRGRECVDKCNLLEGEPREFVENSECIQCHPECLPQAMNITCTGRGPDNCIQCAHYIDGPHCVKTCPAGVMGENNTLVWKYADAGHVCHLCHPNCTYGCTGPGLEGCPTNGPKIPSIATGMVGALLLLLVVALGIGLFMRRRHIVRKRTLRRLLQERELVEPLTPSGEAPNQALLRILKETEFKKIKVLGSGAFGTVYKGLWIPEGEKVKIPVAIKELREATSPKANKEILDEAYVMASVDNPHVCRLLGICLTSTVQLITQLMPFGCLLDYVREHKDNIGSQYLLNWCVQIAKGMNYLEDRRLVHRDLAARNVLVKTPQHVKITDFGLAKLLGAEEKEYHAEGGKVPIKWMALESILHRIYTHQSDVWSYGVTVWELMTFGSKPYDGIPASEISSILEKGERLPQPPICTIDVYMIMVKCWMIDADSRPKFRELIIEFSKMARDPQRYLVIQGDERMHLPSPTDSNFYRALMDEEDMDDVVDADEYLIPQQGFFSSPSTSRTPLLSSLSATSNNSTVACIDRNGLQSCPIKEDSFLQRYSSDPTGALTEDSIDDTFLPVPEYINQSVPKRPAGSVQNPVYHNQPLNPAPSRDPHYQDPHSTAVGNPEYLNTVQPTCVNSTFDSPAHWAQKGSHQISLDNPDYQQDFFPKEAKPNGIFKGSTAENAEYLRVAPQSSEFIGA

IC50 (KDR): < 10 µM
IC50 (FGFR): < 10 µM
IC50 (EGFR): < 10 µM
IC50 (PDGFR): < 10 µM
Structure (SMILES): COc1cc(OC)cc(C2Cc3cnc(Nc4ccccc4)nc3N(c3ccccc3)C2=O)c1 (stereo not drawn) [Example 3d, 6-(3,5-Dimethoxy-phenyl)-8-phenyl-2-phenylamino-5,8-dihydro-6H-pyrido[2,3-d]pyrimidin-7-one]
IC50 [1]: < 10 µM
IC50 [2]: < 10 µM
